Source: US10975030B2, “Grp94 selective inhibitors and uses thereof” (University of Kansas, priority 2016, dated 2021)
Where two headings read alike, the source gives them in different places.

How the values were obtained:
MDA-MB-231 cells = assay: Wound healing scratch assay, MDA-MB-231; format: cell-based; settings: 10 μM ('at 10 μM and 5 μM respectively'), 0, 16, 24 h, FIG. 3A
Procedure: (§1) Chemicals and Cell culture. Compounds were dissolved in DMSO and stored at −20° C. until use. The PC3-MM2 and MDA-MB-231 cells were maintained in DMEM (Cellgro) media supplemented with streptomycin (500 μg/mL), penicillin (100 units/mL) and 10% FBS at 37° C. and 5% CO2.
(§2) Wound Healing Scratch Assay. The cells were seeded in a 24-well plate in complete media and allowed to form a monolayer. After monolayer formation, a scratch was introduced with a sterile 0.1-10 μl pipet tip. The media was replaced with fresh media in the absence or presence of the indicated drug concentrations. Photomicrographs were taken at different time points with an Olympus IX71 microscope using a 10x air lens and CellSans Dimensions software. The images were processed with Image J software.

[1] = test system: integrin α2, integrin αL, Syne2, VAMP2, Rab10 in PC3-MM2 cells; assay: Cell fractionation and Western blot analysis of PC3-MM2 cells; format: cell-based; settings: 30 μM, 24 h, cytoplasmic (Cyto) fraction, compared to DMSO, FIG. 2A
Procedure: as §1
(§3) Antibodies. The following antibodies were used for western blotting and/or immunofluorescence: goat anti-integrin α L #sc6609, rabbit anti-SYNE2 #sc99066, and rabbit anti-actin #sc1616-R (Santa Cruz Biotech-nology, Santa Cruz, Calif.); rabbit anti-Integrin α 2 #ab181548, rabbit anti-VAMP2 #ab3347 (Abcam, Cambridge, Mass.); Phalloidin 647 #A22287 (Invitrogen, Carlsbad Calif.); rabbit anti-Rab10 #4262S (Cell Signaling Technology, Danvers, Mass.).
Cell fractionation and Western Blot Analysis. […] After sedimenting the cell debris, the protein concentration of each lysate was measured in quadruplicate using the BCA protein assay and bovine serum albumin as the standard. The coefficient of variation was determined for each set of quadruplicate measures and if the variability exceeded 5%, the protein assay was repeated for that set of samples. […]

Hsp70 = assay: Western blot of Hsp70 levels; format: cell-based; settings: compared to 17-AAG (5 μM reference)
Procedure: (§4) Cell Culture. Cell culture was performed as described in the art.^25 Tetracycline-inducible Hek cells stably overexpressing I477N mutant myocilin were grown and maintained in Dulbecco's Modified Eagle's Medium supplemented with 10% fetal bovine serum (Invitrogen, penicillin (100 units/mL), streptomycin ([…]) and 1% GlutaMAX (Invitrogen) at 37 C and 5% CO2. Stably overexpressing cells were selected for using hygromycin B ([…]) (InvivoGen) and G418 ([…]) (Gibco). I477N myocilin expression was induced with tetracycline ([…]) for 48H prior to drug treatment.
(§5) Inhibitor Treatment. Inhibitors were solubilized in DMSO (Sigma Aldrich), and diluted to documented concentrations. Cells were treated drop wise with inhibitors 24H prior to cell harvest. DMSO concentration was diluted to 1% total cell medium volume.
(§6) Cell Harvest. Cell harvest was performed as previously described.^21 24H after inhibitor treatment, culture medium was removed and cells were washed 2× with ice cold PBS. […]
(§7) Western Blotting. Western blot analysis was performed as previously described.^41 Cell lysates were prepared at identical protein concentrations, as determined by BCA analysis, in 2× Laemmli sample buffer (Bio-Rad) and denatured by boiling for 5 min at 100 C. […]

Akt = assay: Western blot of cytosolic Hsp90 client protein Akt; format: cell-based; settings: 30 μM (same concentration)
Procedure: as §4, §5, §6, §7

[2] = Anti-proliferation assay (MTS/PMS), PC-3 MM-2; format: cell-based; settings: human, PC-3 MM-2 cells, PC-3 MM-2, 25 μM
Procedure: (§8) Anti-proliferation Assays. Cells were seeded (2000/well, 100 μL) in 96-well plates and incubated overnight. Following incubation, compounds with varying concentrations in DMSO (1% DMSO final concentration) were added and cells were returned to the incubator for 72 h. After 72 h, the cell viability was determined using an MTS/PMS cell proliferation kit (Promega) per the manufacturer's instructions. Absorption value from 1% DMSO wells were used as 100% proliferation, and values were adjusted accordingly.

I477N mutant myocilin = assay: Western blot of I477N mutant myocilin levels in tetracycline inducible HEK cells; format: cell-based; settings: 30 μM, 24 h, HEK cells over-expressing I477N myocilin
Procedure: as §4, §5, §6, §7

PC3-MM2 cells = assay: Immunofluorescence / confocal microscopy analysis of PC3-MM2 cells; format: cell-based; settings: FIG. 2B; for F-actin localization: confocal microscopy, versus DMSO treated cells; for integrin α2 localization: immunofluorescence, versus untreated cells
Procedure: as §1, §3
Immunofluorescence Analysis. For cell imaging, 1 μm-Slide 8 well ibidiTreat IBIDI glass slides were used. PC3-MM2 cells were fixed with freshly made 4% (w/w) paraformaldehyde in PBS for 15 min, permeabilized with 0.1% (w/w) Tween 20 in PBS for 5 min and quenched with 0.1% (w/w) sodium borohydride for 5 min. The sections were blocked with 3% (w/w) BSA in PBS for 1 h and incubated with the primary antibody at a 1:100 concentration in 1% BSA in PBS overnight, prior to incubation with secondary antibody conjugated with Alexa Fluor 568 for 3 h. The sections were counterstained with DAPI and/or with Phalloidin to visualize DNA and filamentous actin (F-actin), respectively. The wells were washed three times with PBS after each step.
Confocal images were acquired using a custom epifluorescent/confocal microscope composed of the following components: an Olympus IX81 inverted spinning disc confocal microscope base (Olympus America, Center Valley, Pa.), a Prior microscope stage for automated image acquisition (Prior Scientific, Rockland, Mass.), an Olympus 60X oil Immersion objective for confocal images (Olympus) and a Hamamatsu Electron Multiplying Charge-Coupled Device (EMCCD) camera (Hamamatsu, Hamamatsu, Shizuoka Prefecture, Japan). Images were captured using the SlideBook acquisition and analysis software, (Intelligent Imaging Innovations (3i), Denver, Colo.).
Images were collected with 8-10 image stacks with a 0.3 micron step size through the cells. Images were processed using Image J software (NIH).

[3] = Anti-proliferation assay (MTS/PMS), MDA-MB-231; format: cell-based; settings: human, MDA-MB-231 cells, MDA-MB-231, 25 μM
Procedure: as §8

PC-3 MM-2 cells = assay: Wound healing scratch assay, PC-3 MM-2; format: cell-based; settings: 5 μM ('at 10 μM and 5 μM respectively'), 0, 16, 24 h, FIG. 3B
Procedure: as §1, §2

Hsp90α = Hsp90α (Homo sapiens (Human), UniProt P07900); assay: Fluorescence polarization (FP) assay, Hsp90α; format: binding
Procedure: (§9) Fluorescence Polarization. Assay buffer (25 μL, 20 mM HEPES pH 7.3, 50 mM KCl, 5 mM MgCl2, 1 mM DTT, 20 mM Na2MoO4, 0.01% NP-40, and 0.5 mg/mL BGG) was added to 96-well plate (black well, black bottom) followed by the desired compound at the indicated final concentrations in DMSO (1% DMSO final concentration). […] Plates were incubated with rocking for 5 h at 4° C. […] Percent FITC-GDA bound was determined by using the DMSO millipolarization unit (mP) as the 100% bound value and the 0% for FITC-GDA. Kd values were calculated from separate experiments performed in triplicate using GraphPad Prism.

[4] = molecular target: Grp94 (recombinant cGrp94) (Canis lupus familiaris (Dog) (Canis familiaris), UniProt P41148); assay: Fluorescence polarization (FP) assay, cGrp94 with FITC-GDA; format: binding
Sequence of Grp94 (recombinant cGrp94) (P41148 22-804): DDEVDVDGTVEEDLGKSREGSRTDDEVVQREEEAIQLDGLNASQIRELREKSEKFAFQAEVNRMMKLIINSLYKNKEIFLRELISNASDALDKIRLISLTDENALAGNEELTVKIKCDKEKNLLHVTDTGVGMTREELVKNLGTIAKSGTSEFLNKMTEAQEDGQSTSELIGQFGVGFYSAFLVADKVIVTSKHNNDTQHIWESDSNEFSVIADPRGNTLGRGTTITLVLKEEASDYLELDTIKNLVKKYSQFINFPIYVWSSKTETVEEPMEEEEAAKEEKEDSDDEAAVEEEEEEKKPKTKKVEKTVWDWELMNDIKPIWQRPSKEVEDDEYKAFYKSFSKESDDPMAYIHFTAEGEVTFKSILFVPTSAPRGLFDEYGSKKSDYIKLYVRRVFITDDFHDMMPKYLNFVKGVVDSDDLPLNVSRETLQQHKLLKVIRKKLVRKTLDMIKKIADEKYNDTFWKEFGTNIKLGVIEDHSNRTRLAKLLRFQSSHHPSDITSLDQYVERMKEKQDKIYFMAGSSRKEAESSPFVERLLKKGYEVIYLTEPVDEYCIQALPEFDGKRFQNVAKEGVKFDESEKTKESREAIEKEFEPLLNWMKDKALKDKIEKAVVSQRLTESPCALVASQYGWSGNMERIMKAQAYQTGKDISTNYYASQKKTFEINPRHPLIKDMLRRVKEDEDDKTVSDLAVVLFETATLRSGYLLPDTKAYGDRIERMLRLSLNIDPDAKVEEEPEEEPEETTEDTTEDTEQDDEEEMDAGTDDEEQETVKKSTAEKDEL
Procedure: as §9

SMILES	migration of MDA-MB-231 cells (MDA-MB-231 cells)	levels of integrin α2, integrin αL, Syne2, VAMP2, and Rab10 [1]	Hsp70 levels (Hsp70)	Akt maturation (Akt)	viability at 72 h, 25 µM [2]	mutant myocilin levels (I477N mutant myocilin)	F-actin localization (PC3-MM2 cells)	integrin α2 localization (PC3-MM2 cells)	viability at 72 h, 25 µM [3]	migration of PC-3 MM-2 cells (PC-3 MM-2 cells)	Kd (Hsp90α)	Kd ([4]; apparent Kd, cGrp94 and FITC-GDA, triplicates, ± SEM, read-out: Kd Grp94)	Kd ([4]; read-out: apparent Kd towards Grp94)
NC(=O)c1ccc(-n2cccc2Cc2ccccc2O)cc1N[C@H]1CC[C@H](O)CC1 [Compound 8j, 4-(2-(2-hydroxybenzyl)-1H-pyrrol-1-yl)-2-(((1r,4r)-4-hydroxycyclohexyl)amino)benzamide]	inhibited migration	reduced levels	remained unaffected	did not affect	> 95%	significant decrease	formed sporadic patches in the cytoplasm	localized as patches in the cytoplasm	> 95%	inhibited migration			
NC(=O)c1ccc(-n2cccc2Cc2ccccc2F)cc1N[C@H]1CC[C@H](O)CC1 [Compound 8e, 4-(2-(2-fluorobenzyl)-1H-pyrrol-1-yl)-2-(((1r,4r)-4-hydroxycyclohexyl)amino)benzamide]	inhibited migration	reduced levels			> 95%		formed sporadic patches in the cytoplasm	localized as patches in the cytoplasm	> 95%	inhibited migration	> 100 µM	0.72 ± 0.14 µM	~0.724 µM
